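Following 48 hours of exposure in 96-well plates, responses at five concentrations were used to interpolate endpoints linearly. GI50: concentration for 50% inhibition of growth.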 The source made the active and inactive calls. Cut-off read from the data, not from the text of the source: active = GI50 up to about 1.1 µM and inactive = higher.
Columns and labels:
Assay in all cases: NCI-60 cell line screen, 48 h
ACHN = tested on: ACHN
BT-549 = tested on: BT-549
CAKI-1 = tested on: CAKI-1
HCC 2998 = tested on: HCC 2998
HCT-116 = tested on: HCT-116
HOP-62 = tested on: HOP-62
K562 = tested on: K562
KM12 = tested on: KM12
LOX IMVI = tested on: LOX IMVI
MOLT-4 = tested on: MOLT-4
NCI-H23 = tested on: NCI-H23
OVCAR-3 = tested on: OVCAR-3
OVCAR-5 = tested on: OVCAR-5
RXF 393 = tested on: RXF 393
SF-295 = tested on: SF-295
SNB-75 = tested on: SNB-75
TK-10 = tested on: TK-10
UO-31 = tested on: UO-31
SK-MEL-2 = tested on: SK-MEL-2

SMILES | GI50 (ACHN) | GI50 (BT-549) | GI50 (CAKI-1) | GI50 (HCC 2998) | GI50 (HCT-116) | GI50 (HOP-62) | GI50 (K562) | GI50 (KM12) | GI50 (LOX IMVI) | GI50 (MOLT-4) | GI50 (NCI-H23) | GI50 (OVCAR-3) | GI50 (OVCAR-5) | GI50 (RXF 393) | GI50 (SF-295) | GI50 (SNB-75) | GI50 (TK-10) | GI50 (UO-31) | GI50 (SK-MEL-2)
O=C1C(Cl)=C(N2CCN(c3ccccn3)CC2)C(=O)c2c(O)ccc(O)c21 | 2.42 µM (inactive) | 1.9 µM (inactive) | 2.08 µM (inactive) | 2.51 µM (inactive) | 1.7 µM (inactive) | 4.67 µM (inactive) | 0.512 µM (active) | 3.1 µM (inactive) | 0.157 µM (active) | 0.456 µM (active) | 1.18 µM (inactive) | 1.95 µM (inactive) | 6.08 µM (inactive) | 1.74 µM (inactive) | 3.78 µM (inactive) | 1.89 µM (inactive) | 2.29 µM (inactive) | 1.87 µM (inactive) | 
CNc1ccc(N)cc1C(=O)N1CCC[C@H]1CO | > 100 µM (inactive) | > 100 µM (inactive) | > 100 µM (inactive) |  | > 100 µM (inactive) | > 100 µM (inactive) |  | > 100 µM (inactive) | > 100 µM (inactive) | > 100 µM (inactive) | > 100 µM (inactive) |  | > 100 µM (inactive) | > 100 µM (inactive) | > 100 µM (inactive) | > 100 µM (inactive) | > 100 µM (inactive) | > 100 µM (inactive) | > 100 µM (inactive)
CC(Cc1cccc2c1Nc1ccccc1S2)N(C)CCO (centres undefined) | > 100 µM (inactive) | > 100 µM (inactive) | > 100 µM (inactive) | > 100 µM (inactive) | > 100 µM (inactive) | > 100 µM (inactive) | > 100 µM (inactive) | > 100 µM (inactive) | > 100 µM (inactive) | > 100 µM (inactive) | > 100 µM (inactive) | > 100 µM (inactive) | > 100 µM (inactive) | > 100 µM (inactive) | > 100 µM (inactive) |  | > 100 µM (inactive) | > 100 µM (inactive) | 
O=C(Nc1ccc(C(F)(F)F)cc1[N+](=O)[O-])c1cccnc1 | 7.01 µM (inactive) | 7.06 µM (inactive) | 2.81 µM (inactive) | > 100 µM (inactive) | 7.24 µM (inactive) | 54.5 µM (inactive) | 2.45 µM (inactive) | 2.57 µM (inactive) | 7.31 µM (inactive) | 9.1 µM (inactive) | 33.2 µM (inactive) | 2.41 µM (inactive) | 73.5 µM (inactive) |  | 4.42 µM (inactive) | 3.72 µM (inactive) | 5.46 µM (inactive) | 8.85 µM (inactive) | 4.21 µM (inactive)
C[C@]12CC[C@H](O)CC1=CC[C@@H]1C2CC[C@]2(C)Nc3c(cnn3-c3ccc(F)cc3)CC12 (some centres undefined) | 16 µM (inactive) | 14.4 µM (inactive) | 64.6 µM (inactive) | > 68.2 µM (inactive) | 14.7 µM (inactive) | 10.8 µM (inactive) | 2.25 µM (inactive) | 29.4 µM (inactive) | 3.2 µM (inactive) | 3.48 µM (inactive) | 26.5 µM (inactive) | 48.5 µM (inactive) | > 100 µM (inactive) | 2.25 µM (inactive) | 2.43 µM (inactive) | 2.71 µM (inactive) | 78.2 µM (inactive) | > 39.4 µM (inactive) | 
N#Cc1ncn(CCO)c1N | > 100 µM (inactive) | > 100 µM (inactive) | > 100 µM (inactive) | > 100 µM (inactive) | > 100 µM (inactive) | > 100 µM (inactive) | > 100 µM (inactive) | > 100 µM (inactive) | > 100 µM (inactive) | > 100 µM (inactive) | > 100 µM (inactive) | > 100 µM (inactive) | > 100 µM (inactive) |  | > 100 µM (inactive) | > 100 µM (inactive) | > 100 µM (inactive) | > 100 µM (inactive) | > 100 µM (inactive)
O=C1CCSc2c(cnc3ccccc23)N1 | > 100 µM (inactive) | 27.4 µM (inactive) | 56.8 µM (inactive) |  | > 100 µM (inactive) | > 100 µM (inactive) | > 100 µM (inactive) | > 100 µM (inactive) | 58.2 µM (inactive) | > 100 µM (inactive) | > 100 µM (inactive) | 65.5 µM (inactive) | > 100 µM (inactive) | 34.4 µM (inactive) | > 100 µM (inactive) | 27.7 µM (inactive) | 71.6 µM (inactive) | 60.7 µM (inactive) | 80 µM (inactive)
CC(C)(C)OC(=O)NCCCCC(NC(=O)c1ccccc1)C(N)=O (centres undefined) | > 100 µM (inactive) | > 100 µM (inactive) | > 100 µM (inactive) |  | > 100 µM (inactive) | > 100 µM (inactive) | 54.7 µM (inactive) | > 100 µM (inactive) | > 100 µM (inactive) | 46.6 µM (inactive) | > 100 µM (inactive) | > 100 µM (inactive) | > 100 µM (inactive) | > 100 µM (inactive) | > 100 µM (inactive) | > 100 µM (inactive) | > 100 µM (inactive) | > 100 µM (inactive) | > 100 µM (inactive)
CN(C)c1ccc(/C=c2/c3ccccc3n3nc4ccccc4c23)cc1 | 38.6 µM (inactive) | 13.8 µM (inactive) | 28.7 µM (inactive) |  | 16.8 µM (inactive) | 49.4 µM (inactive) | 9.53 µM (inactive) | 30.7 µM (inactive) | 18.7 µM (inactive) | 17 µM (inactive) | 95.7 µM (inactive) | 28.2 µM (inactive) | > 100 µM (inactive) | 11.9 µM (inactive) | 13.2 µM (inactive) | 2.49 µM (inactive) | > 100 µM (inactive) | 39.6 µM (inactive) | 23.4 µM (inactive)
O=c1[nH]nc(Cc2ccc(Cl)cc2)n1Nc1ccccc1 | > 100 µM (inactive) | > 100 µM (inactive) | > 100 µM (inactive) | > 100 µM (inactive) | > 100 µM (inactive) | 79.6 µM (inactive) | > 100 µM (inactive) | > 100 µM (inactive) | > 100 µM (inactive) | > 100 µM (inactive) | > 100 µM (inactive) | > 100 µM (inactive) | > 100 µM (inactive) |  | > 100 µM (inactive) | 48.8 µM (inactive) | > 100 µM (inactive) | > 100 µM (inactive) | > 100 µM (inactive)
C=C1c2nc3ccccc3n2C=C(c2ccccc2)N1c1ccc(OC)cc1 | 13 µM (inactive) | 13.5 µM (inactive) | 25.5 µM (inactive) |  | 17.5 µM (inactive) |  | 45.4 µM (inactive) | 11.4 µM (inactive) | 50 µM (inactive) | 18.9 µM (inactive) | 11.4 µM (inactive) | 57.8 µM (inactive) | 43.7 µM (inactive) | 11.7 µM (inactive) | 10.7 µM (inactive) | 3.68 µM (inactive) | 12.5 µM (inactive) | 4.52 µM (inactive) | 28.6 µM (inactive)

Reference: ChEMBL document CHEMBL1201862, “PubChem BioAssay data set” (2004)
